# Test results as given in patent publication US20040180812A1, “Methods of treating and preventing proliferative disease” (Technology Center, priority 2002, published 2004).
# Read-outs that look alike come from different tables or passages of the source.
# Assays:
# U-87 glioblastoma cells [1] = experiment: Clonogenic assay; assay type: cell-based, human; details: 25, 50, 100 μM, four hours exposure
# Protocol: (§1) U-87 glioblastoma cells and A-549 non-small cell lung cancer cells (American Type Culture Collection) were maintained in alpha MEM (Sigma) with 10% fetal bovine serum (Atlanta Biologicals). Tumor cell lines were expanded as a monolayer culture by serial passage on tissue culture plates in tumor media (alpha MEM with 10% fetal bovine serum).
# (§2) The effect of clopidogrel and Aggrenox™ on U-87 and A-549 survival was determined by preparing single cell suspensions from each cell culture. The cells were subjected to three concentrations of each drug (25, 50, or 100 μM) for four hours in medium. The suspensions were serially diluted with medium. The cells were then seeded in triplicate in 50 mm flasks. After 6 to 14 days of incubation, the cultures were stained with crystal violet and counted.
# U-87 glioblastoma cells [2] = experiment: In-vitro determination of proliferation (Coulter counter); assay type: cell-based, human
# Protocol: as §1
# (§3) The cell doubling time was determined for both U-87 and A-549 tumor cells. A total of 1×10^6 Cells from resting culture were seeded in 50 mm flasks with medium and allowed to adhere for approximately Three hours. Clopidogrel and Aggrenox™ were then added in concentrations of 25, 50, or 100 μM. After further incubation for four hours, controls and treated dishes were trypsinized and counted in a Coulter Counter ZM. This count served as the starting count for proliferation and confirmed similar cell adhesion in each series. Cells were then counted every 24 hours for a total of 96 hours.
# U-87 tumor = system: U-87 tumor
# Protocol: In order to evaluate the effect of clopidogrel on U-87 tumor growth rate, U-87 cell suspension was injected subcutaneously into the right hind limb (5×10^5 cells in 50 μl PBS) of athymic NCR NUM mice (Taconic Farms). The clopidogrel was added to the drinking water in concentrations of 0.135 (low), 0.180 (intermediate) or 0.225 mg/ml (high). This was equivalent to an oral dose of approximately 15, 20, or 25 mg/kg/day. Mice were not pretreated prior to tumor implantation. The mice were randomized to five groups (control, low, intermediate and high concentration and non-solubilized drug) with five mice per group.
# U-87 tumors were allowed to grow for approximately 10-14 days until reaching an approximate volume of 40-85 mm^3, before treatment. Tumor volume was determined daily by direct measurement with calipers and calculated by the formula [(smallest diameter^2×widest diameter)/2]. Daily weights were obtained.
# Polynomial regression lines were fit to the data for each individual mouse for 20-24 days. Means were taken at two-day intervals for mice in each group.
# U-87 cells were inoculated into the right hind limb of athymic NCR NUM mice. […] U-87 tumors were allowed to grow for approximately 10-14 days until reaching an approximate volume of 40-85 mm^3, before treatment. Clopidogrel was added to the drinking water in concentrations of 0.135 (low), 0.180 (intermediate) or 0.225 mg/ml (high). This was equivalent to an oral dose of approximately 15, 20, or 25 mg/kg/day. Tumor dimensions and animal weights were taken daily.
# [3] = system: human U87 gliobastoma tumor xenografts
# Protocol: Glioblastoma cell line U-87 (ATCC) was cultured in 150 cm^2 polystyrene flasks (Fisher cat. no. 355001) in Alpha MEM media (Cellgro® cat. no. 15-012-CV) supplemented with 10% FBS, 1× non essential amino acids (Cellgro® cat. no. 25-025-Cl), 0.1% glucose (Sigma® cat. no. G8644), 2 mM L-glutamine (Gibco BRL® cat. no. 25030-081) and 0.2% sodium bicarbonate (Cellgro® cat. no. 25-035-Cl) to sub-confluence (80%). Prior to cell dissociation, the culture was washed once with 1×PBS (Bio Whittaker® cat. no. 16-006Y) and dissociated with trypsin free Cellstripper™ (Cellgro® cat. no. 25-056-Cl). Suspended cells were counted using the model Z1 Coulter® particle counter.
# Male mice (NCR-NU-M, Taconic®), 3-5 weeks old, were anesthetized with 0.2 mls Nembutal® (10 mg/ml in sterile water) subcutaneous in the back of the neck. Once anesthetized, each mouse was injected subcutaneous with 5×10^5 cells/0.2 ml in the right hind flank. Tumors were allowed to grow to 60 mm^3 prior to treatment. Tumor volume was calculated by the following formula from orthogonal measurements using Fisher Scientific® electronic digital calipers. [formula]
# Tumors were allowed to grow to a final volume of 2000 mm^3 where upon the treatment was terminated and the mice were sacrificed using a CO2 gas chamber.
# Treatment groups were evaluated for tumor growth delay. A 60 mg/kg/day solution of Plavix® (clopidogrel bisulfate) was prepared by crushing and dissolving 75 mg tablets in water (pH 1.0). The solute was filtered through a Nalgene® filtration unit (cat. no. 126-0020) and the pH raised to 1.78. Mice were gavaged daily with 0.2 ml solution of Plavix® and vehicle controls were gavaged daily with 0.2 ml acidified water pH 1.78.
# Prior to X-ray irradiation, mice were anesthetized with […] Ketamine HCl (Ketaset III®, Fort Dodge®) and […] Acepromazine Maleate (Phoenix pharmaceutical, Inc.) by subcutaneous injection in the back to the neck. Tumors on the right hind leg were exposed to 7.5 Gy three times on alternate days for one week using a Pantek X-ray irradiator.
# [4] = system: A-549 non-small cell lung cancer cells; experiment: Clonogenic assay; assay type: cell-based; details: 25, 50, 100 μM, four hours exposure
# Protocol: as §1, §2
# [5] = system: A-549 non-small cell lung cancer cells; experiment: In-vitro determination of proliferation (Coulter counter); assay type: cell-based
# Protocol: as §1, §3
# [6] = highest concentration 100 μM, counted every 24 h for 96 h
smiles,measurement,setting,value
"COC(=O)[C@H](c1ccccc1Cl)N1CCc2sccc2C1 [clopidogrel, clopidogrel bisulfate]",U-87 clonogenic cell survival compared with Aggrenox results,U-87 glioblastoma cells [1],exaggerated
same,proliferation of U-87 cells,U-87 glioblastoma cells [2]; [6],considerably inhibited
same,cell proliferation (U-87),U-87 glioblastoma cells [2]; lowest concentration (25 μM),did not significantly affect cell proliferation
same,dose response of tumor growth delay,"U-87 tumor; 0.135, 0.180, 0.225 mg/ml in drinking water",A dose response was noted
same,tumor growth delay,"U-87 tumor; highest concentration 0.225 mg/ml in drinking water, approx. 25 mg/kg/day oral",much more dramatic
same,tumor growth delay,"U-87 tumor; lowest concentration 0.135 mg/ml in drinking water, approx. 15 mg/kg/day oral",small growth delay
same,Tumor growth Delay (Experiment 1),[3]; Plavix alone,5 days
same,Tumor growth Delay (Experiment 2),[3]; Plavix alone,5 days
same,tumor growth delay (TGD),"[3]; Plavix alone, 60 mg/kg/day gavage",5 days
same,Tumor growth Delay (Experiment 2),[3]; Radiation plus Plavix,16 days
same,tumor growth delay (TGD),[3]; radiation (7.5 Gy three times) and Plavix 60 mg/kg/day combined,16 days
same,TGD more than radiation alone,[3]; radiation and Plavix combined versus radiation alone,4 days
same,A-549 clonogenic cell survival compared with Aggrenox results,[4],exaggerated
same,A-549 cell proliferation,[5]; [6],even more drastically inhibited
same,cell proliferation (A-549),[5]; lowest concentration (25 μM),did not significantly affect cell proliferation
